# Data: patent US12565680B2, “Cancer neoantigens and their utilities in cancer vaccines and TCR-based cancer immunotherapy” (THE METHODIST HOSPITAL SYSTEM, priority 2018, dated 2026)
# Assays:
# Type in all cases: cell-based, human
# 135TIL = assay: Intracellular staining of IFN-γ after neoantigen peptide stimulation, 135TIL; details: intracellular cytokine staining
# Procedure: (§1) T cells were stimulated by various in vitro methods, such as tumor cells, peptides or DNA encoding neoantigens, etc. and induced to release cytokines. Stimulated T cells were resuspended in 100 μl of Cytofix/Cytoperm solution (BD Biosciences) per well for microwell plates (or 250 μl for tubes) and incubated for 20 min at 4° C. for cell fixation. Fixed cells were permeabilized by washing twice in 1× Perm/Wash buffer (BD Biosciences). Then the fixed/permeabilized cells were thoroughly resuspended in 50 μl of 1× Perm/Wash buffer containing 1 μl of phycoerythrin (PE)-conjugated IFN-γ antibody (Thermo Fisher Scientific) and incubate at 4° C. for 30 min in the dark. After that the cells were washed twice with 1× Perm/Wash buffer and ready for flow cytometric analysis.
# T-cell clones of 135TIL = assay: IFN-γ ELISA with tumor-reactive T-cell clones of 135TIL; details: for percentage of CD8^+ tumor-reactive T-cell clones recognizing the neoantigen: 40 clones; for number of CD8^+ tumor-reactive T-cell clones recognizing the neoantigen: of 40 clones
# Text: Thus, immunogenic antigens can be generated from various sources or mechanisms [such as alternative ORFs, noncoding regions (3′ and 5′ UTRs, introns, noncoding RNA)]. […] All other tumor-reactive CD4^+ T-cell clones and CD8^+ T-cell clones recognized the mutation-derived neoantigens. […] To identify these two antigens recognized by these two CD4^+ T-cell clones, an Ii-fusion cDNA library derived from 135 mel tumor cells was constructed using experimental procedures. The Ii-fusion cDNA library pools (approximately 100 cDNA clones per pool) were transfected into 293IMDR3/DP4 or 293IMDR4/DP4 cells, followed by co-culturing with CD4^+ T-cell clones (135-1C1 or 135-1E1). After 2×10^5 cDNA clones, positive cDNA library pools that stimulate two T-cell clones, respectively, were identified based on IFN-γ release by ELISA (FIG. 6B). The positive pools were then transformed into Stbl3™ Escherichia coli, and single bacteria colonies were picked for plasmid DNA isolation. The screening assays were repeated in the same APCs transfected with the single cDNA-containing plasmids, and identified three clones that were able to stimulate 135-1C1 T cells, and two clones that reacted with 135-1E1 T cells (FIG. 6C). […] The 135-1E1 T cell-reactive cDNA clones encoded the product translated from an alternative reading frame of CTAG2 (LAGE1b) (FIG. 6C and FIG. 7A). […] LAGE1 is a cancer-testis antigen, with over 80% amino acid sequence identical to NY-ESO-1 protein, which is the most immunogenic tumor antigen identified to date. To define the T cell epitopes, wee generated a series of deletions and truncations of 3′ UTR region of ADIPOR2 gene, and narrowed down T cell epitope to a 26 aa peptide-coding sequence that stimulate 135-1C1 T cell response (FIG. 7D). Using similar approach, T cell epitopes were narrowed down to a 69 aa peptide-coding sequence of the LAGE1b alternative ORF2 for 135-1E1 T-cell recognition (FIG. 7E).
# Using systemic and multiple approaches, 8 cancer neoantigens were identified in 135 mel and 7 neoantigens in 136 mel. To understand the potential mechanisms that restrain the number of neoantigens that could induce T cell response, it was asked whether these neoantigens were equally recognized by T cells.
# T-cell cloning and expansion were performed. Briefly, T-cell clones from 135TILs were generated by a limited dilution (0.3 cell/well) in 96-well plates. Allogeneic PBMCs from normal donors were irradiated (60 Gy) and then seeded as feeder cells (7×10^4/well) in TCM containing 35 ng/ml OKT3 (anti-hCD3 antibody) (R&D Systems) and 35 ng/ml anti-hCD28 antibody (R&D Systems). On day 1, recombinant IL-2 was added to the final concentration of 300 IU/ml. On day 5, half of the culture medium was replaced with fresh TCM containing recombinant IL-2, and then the medium was changed every other day or when the medium color turned yellow. On day 14, T-cell clones were harvested, counted, tested for tumor reactivity. Tumor reactive T-cell clones were further expanded.
# 96-well tissue culture plates were coated with phosphate-buffered saline (PBS, GenDEPOT) containing 50 μg/ml poly-L-lysine (Millipore Sigma) at 37° C. 10 min later, the plates were rinsed twice with PBS. Tumor cells or 293-APCs were seeded at 5×10^4/well in the 96-well plate and cultured at 37° C., 5% CO2 for at least 4 h. For plasmid transfection, 250 ng of plasmid DNA were transfected into 293-APCs per well with 0.5 μl of Lipofectamine 2000 (Thermo Fisher Scientific) according to the manufacturer's instructions and incubated at 37° C., in 5% CO2 overnight. For peptide presentation, synthesized peptides (GeneScript) were added to each well at different final concentrations from 10^2 to 10^−4 μM and incubated at 37° C., 5% CO2. The cells transfected with plasmids or pulsed with peptides were washed with TCM twice, and then cocultured with T cells (1×10^5/well). After overnight culture, 50 μl of supernatant was collected for measuring cytokine release with an ELISA assay. […]
# [1] = system: CD4^+ T cells isolated from 136TIL; assay: T-cell reactivity assay (IFN-γ ELISA): TMGs/minigenes in 293IMDR1/DP4 and 293IMDR11/DP4 cells; details: 293IMDR1/DP4 cells
# Text: Using several different approaches (293-engineered APCs and B cells, as well as different libraries) and tumor-reactive T cells (TIL lines and clones), 6 MHC-II antigens (4 mutation-derived neoantigens and 2 derived from alternative ORF and 3′ UTR region) were identified and 3 MHC-I neoantigens in 135 mel tumor cells. It appears that the number of neoantigens recognized by T cells is rather limited, even though there are 232 somatic mutations (Table 3). To extend the findings, exome sequencing of genomic DNAs isolated from the second patient tumor (136 mel) and 136TIL cells (as a control) was performed and identified 348 somatic mutations that were unique to 136 tumor cells (FIG. 8A) (Table 4). A library was designed and constructed containing 35 TMGs (10 mutations in each TMG) in pTSX targeting expression vector based on somatic mutations. […] By contrast, no appreciable T cell activity was observed against the corresponding WT counterparts (FIG. 8C). Because ANKIB1 can be presented by both 293IMDR1/DP4 and 293IMDR11/DP4 cells (FIG. 8B), it is likely that ANKIB1 is presented by HLA-DP4 molecules for T cell recognition.
# 96-well tissue culture plates were coated with phosphate-buffered saline (PBS, GenDEPOT) containing 50 μg/ml poly-L-lysine (Millipore Sigma) at 37° C. 10 min later, the plates were rinsed twice with PBS. Tumor cells or 293-APCs were seeded at 5×10^4/well in the 96-well plate and cultured at 37° C., 5% CO2 for at least 4 h. For plasmid transfection, 250 ng of plasmid DNA were transfected into 293-APCs per well with 0.5 μl of Lipofectamine 2000 (Thermo Fisher Scientific) according to the manufacturer's instructions and incubated at 37° C., in 5% CO2 overnight. For peptide presentation, synthesized peptides (GeneScript) were added to each well at different final concentrations from 10^2 to 10^−4 μM and incubated at 37° C., 5% CO2. The cells transfected with plasmids or pulsed with peptides were washed with TCM twice, and then cocultured with T cells (1×10^5/well). After overnight culture, 50 μl of supernatant was collected for measuring cytokine release with an ELISA assay.
# 96-well microplate (Greiner Bio-one) was coated with 50 μl of PBS containing anti-human IFN-γ (Thermo Fisher Scientific, primary antibody, 1 μg/ml) per well and incubated at 4° C. overnight. […] The plate was read at OD450 nm. The concentration of IFN-γ was calculated by standard reading.
# The screening of antigen-specific T cells against TMGs were performed as described in T-cell reactivity assay above. […] The transfected cells were cocultured with tumor-reactive T cells overnight and the IFN-γ release in the supernatant in each well was determined by ELISA on the second day.
# 136TIL = assay: Intracellular staining of IFN-γ after neoantigen peptide stimulation, 136TIL; details: for neoantigen-specific CD4^+ T cells in the total T cell population: fibroblasts loaded with peptide
# Text: Among them, MAPK9 and ANKIB1 neoantigen-specific CD4^+ T cells accounted for 14.3% and 5.2% in the total T cell population, which accounted for 58% and 21% in the total tumor-reactive CD4^+ T cell population, respectively (FIG. 11B). By contrast, other neoantigen-specific CD4^+ T cells accounted for only a small percentage of T cells in the total T cell population (FIG. 11A). Since HHAT is only one MHC-I neoantigen, it was shown that HHAT neoantigen-specific CD8^+ T cells accounted for 10.6% in the total T cell population when stimulation with HHAT peptide (FIG. 11A), which accounted for 73% in the total tumor-reactive CD8^+ T cell population (FIG. 11B).
# as §1
# [2] = system: CD4^+136-C13 and 136-C22 T cell clones; assay: TMG/minigene screening with T cell clones of 136TIL; details: 293IMDR1/DP4 cells
# Procedure: As shown in 135 mel, ADIPOR2 and LAGE1b were identified as tumor antigens recognized by T cell clones that were in relatively low abundance in the bulk TIL population. Thus, T cell clones generated from 136TILs were tested for their ability to recognize the newly identified as well as unknown neoantigens. 293IMDR1/DP4 and 293IMDR11/DP4 cells were transfected with 35 TMGs, respectively, followed by co-culturing with T cells clones for overnight.
sequence,measurement,setting,value
"GSGEKVAGRVIVKVCEVTRVKAVRI [TXNIP, MHC-I neoantigen of patient #135]",CD8^+ T cells recognizing the neoantigen in the total T cell population,135TIL,2.95%
same,percentage of CD8^+ tumor-reactive T-cell clones recognizing the neoantigen,T-cell clones of 135TIL,20%
same,number of CD8^+ tumor-reactive T-cell clones recognizing the neoantigen,T-cell clones of 135TIL,8
"KDAARPAYWVPDYEILHCHNCRKEF [ZFYVE1, MHC-II neoantigen of patient #136]","T cell recognition, IFN-γ release by CD4^+ 136TIL",[1],capable of stimulating CD4^+ T cells for IFN-γ release
"LLKTRRILKCSYLYGFFLEPKSTKK [ANKIB1, MHC-II neoantigen of patient #136]","T cell recognition, IFN-γ release by CD4^+ 136TIL",[1],capable of stimulating CD4^+ T cells for IFN-γ release
same,share in the total tumor-reactive CD4^+ T cell population,136TIL,21%
same,neoantigen-specific CD4^+ T cells in the total T cell population,136TIL,5.2%
"LLLAGYLAQQYLLLPTPKVIGIDLG [HSPA13, MHC-II neoantigen of patient #136 recognized by clone C22]",recognition by T cell clones 136-C13 (TMG13) and 136-C22 (TMG8),[2],MHC-II neoantigens
"PFYLGHTIKSGDFEYVGMEGGIVLS [C1GALT1C1, MHC-II neoantigen of patient #136 recognized by clone C13]",recognition by T cell clones 136-C13 (TMG13) and 136-C22 (TMG8),[2],MHC-II neoantigens
"RLKASLDRPFTNSESAFYSIVGLSS [RPN2, MHC-I neoantigen of patient #135]",CD8^+ T cells recognizing the neoantigen in the total T cell population,135TIL,1.54%
same,percentage of CD8^+ tumor-reactive T-cell clones recognizing the neoantigen,T-cell clones of 135TIL,12.5%
same,number of CD8^+ tumor-reactive T-cell clones recognizing the neoantigen,T-cell clones of 135TIL,5
"SMPLWDFQGSTMRTSQYVRLTPDER [LMAN2, MHC-II neoantigen of patient #136]","T cell recognition, IFN-γ release by CD4^+ 136TIL",[1],capable of stimulating CD4^+ T cells for IFN-γ release
"YPGIKFEELFPDCIFPSESERDKIK [MAPK9, MHC-II neoantigen of patient #136]","T cell recognition, IFN-γ release by CD4^+ 136TIL",[1],capable of stimulating CD4^+ T cells for IFN-γ release
same,share in the total tumor-reactive CD4^+ T cell population,136TIL,58%
same,neoantigen-specific CD4^+ T cells in the total T cell population,136TIL,14.3%
